Data taken from patent publication US20240398828A1, “HETERO-ATOM CONTAINING COMPOUNDS AND USES THEREOF” (Kumquat Biosciences Inc., priority 2021, published 2024).

Legend:
PTPN2 (i.e., TC-PTP) = target: T1, PTPN2 (i.e., TC-PTP) (Homo sapiens, UniProt P17706); assay: Phosphatase activity assay (DiFMUP substrate), PTPN2; type: biochemical; details: compounds binned ≤1 uM or >1 uM
T1 sequence (P17706 1-415): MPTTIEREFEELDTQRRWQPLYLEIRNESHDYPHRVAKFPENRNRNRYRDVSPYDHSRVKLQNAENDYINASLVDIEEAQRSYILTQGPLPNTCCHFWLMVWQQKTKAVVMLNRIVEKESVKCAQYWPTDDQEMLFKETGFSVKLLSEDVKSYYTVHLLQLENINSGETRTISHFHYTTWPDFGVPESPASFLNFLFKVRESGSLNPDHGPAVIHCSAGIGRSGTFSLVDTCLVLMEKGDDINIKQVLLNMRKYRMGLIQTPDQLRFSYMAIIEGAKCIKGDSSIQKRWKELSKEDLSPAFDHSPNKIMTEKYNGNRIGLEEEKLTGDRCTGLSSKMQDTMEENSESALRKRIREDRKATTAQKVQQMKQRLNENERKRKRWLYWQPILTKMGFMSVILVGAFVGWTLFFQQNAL
Method in brief: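 Enzyme (e.g. PTPN2 0.025 ng/ul) mixed about 2 min with compound at 10 serial concentrations in 50 mM HEPES pH 7.5, 150 mM NaCl, 0.5 mM EDTA, 1 mM DTT, 0.001% Tween-20 at room temperature. DiFMUP added at each enzyme's Km (about 45 μM for PTPN2). DiFMU fluorescence (ex 360/em 450 nm) followed 15-30 min; IC50 from 4-parameter fit of rates.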

PTPN1 (i.e., PTP1B) = target: T2, PTPN1 (i.e., PTP1B) (Homo sapiens, UniProt P18031); assay: Phosphatase activity assay (DiFMUP substrate), PTP1B; type: biochemical; details: compounds binned ≤1 uM or >1 uM
T2 sequence (P18031 1-435): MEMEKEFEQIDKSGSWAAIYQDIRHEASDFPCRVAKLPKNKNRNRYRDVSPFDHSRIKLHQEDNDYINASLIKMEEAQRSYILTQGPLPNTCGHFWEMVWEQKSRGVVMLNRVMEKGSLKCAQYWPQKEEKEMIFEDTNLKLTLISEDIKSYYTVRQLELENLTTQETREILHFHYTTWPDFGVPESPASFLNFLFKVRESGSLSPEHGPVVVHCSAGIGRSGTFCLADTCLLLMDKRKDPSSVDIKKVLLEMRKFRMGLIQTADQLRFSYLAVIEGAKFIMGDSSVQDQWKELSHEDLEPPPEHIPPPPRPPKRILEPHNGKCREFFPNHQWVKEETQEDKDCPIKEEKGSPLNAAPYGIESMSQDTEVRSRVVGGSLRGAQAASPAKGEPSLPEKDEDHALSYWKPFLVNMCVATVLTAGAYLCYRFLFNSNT
Method in brief: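 Read-out is continuous fluorescence of DiFMU (360 nm excitation, 450 nm emission) over about 15-30 minutes, with DiFMUP substrate at the enzyme's independently determined Km (PTPN2 approx. 45 μM final). Buffer: 50 mM HEPES pH 7.5, 150 mM NaCl, 0.5 mM EDTA, 1 mM DTT, 0.001% Tween-20, room temperature; initial rates versus 10-point dilution fitted for IC50, at least duplicate.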

SMILES | IC50 (PTPN2 (i.e., TC-PTP)) [nM] | IC50 (PTPN1 (i.e., PTP1B)) [nM]
O=C1CN(c2c(O)ccc(-c3cc(N4CC5(CCC5)C4)n[nH]3)c2F)S(=O)(=O)N1 [Compound 323, 5-(3-(3-(2-azaspiro[3.3]heptan-2-yl)-1H-pyrazol-5-yl)-2-fluoro-6-hydroxyphenyl)-1,2,5-thiadiazolidin-3-one 1,1-dioxide] | ≤ 1000 | ≤ 1000
CC1(n2cc(-c3ccc(O)c(N4CC(=O)NS4(=O)=O)c3F)cn2)CC1 [Compound 324, 5-(2-fluoro-6-hydroxy-3-(1-(1-methylcyclopropyl)-1H-pyrazol-4-yl)phenyl)-1,2,5-thiadiazolidin-3-one 1,1-dioxide] | ≤ 1000 | ≤ 1000
O=C1CN(c2c(O)ccc(-c3cn(-c4cccc(C(F)(F)F)c4)cn3)c2F)S(=O)(=O)N1 [Compound 325, 5-(2-fluoro-6-hydroxy-3-(1-(3-(trifluoromethyl)phenyl)-1H-imidazol-4-yl)phenyl)-1,2,5-thiadiazolidin-3-one 1,1-dioxide] | ≤ 1000 | ≤ 1000
O=C1CN(c2c(O)ccc(-c3cc(C4CCOC4)n[nH]3)c2F)S(=O)(=O)N1 (stereo not shown) [Compound 326, 5-(2-fluoro-6-hydroxy-3-(3-(tetrahydrofuran-3-yl)-1H-pyrazol-5-yl)phenyl)-1,2,5-thiadiazolidin-3-one 1,1-dioxide] | ≤ 1000 | ≤ 1000
O=C1CN(c2c(O)ccc(C3CNC(CO)C3)c2F)S(=O)(=O)N1 (stereo not shown) [Compound 327, 5-(2-fluoro-6-hydroxy-3-(5-(hydroxymethyl)pyrrolidin-3-yl)phenyl)-1,2,5-thiadiazolidin-3-one 1,1-dioxide] | ≤ 1000 | ≤ 1000
O=C1CN(c2c(O)ccc(-c3cn(C4CCOCC4)cn3)c2F)S(=O)(=O)N1 [Compound 328, 5-(2-fluoro-6-hydroxy-3-(1-(tetrahydro-2H-pyran-4-yl)-1H-imidazol-4-yl)phenyl)-1,2,5-thiadiazolidin-3-one 1,1-dioxide] | ≤ 1000 | ≤ 1000
O=C1CN(c2c(O)ccc(-c3cc(C4CC4)n(CC4CCNC4)n3)c2F)S(=O)(=O)N1 (stereo not shown) [Compound 329, 5-(3-(5-cyclopropyl-1-(pyrrolidin-3-ylmethyl)-1H-pyrazol-3-yl)-2-fluoro-6-hydroxyphenyl)-1,2,5-thiadiazolidin-3-one 1,1-dioxide] | ≤ 1000 | ≤ 1000
NC1CC=C(c2ccc(O)c(N3CC(=O)NS3(=O)=O)c2F)C1 (stereo not shown) [Compound 330, 5-(3-(4-aminocyclopent-1-en-1-yl)-2-fluoro-6-hydroxyphenyl)-1,2,5-thiadiazolidin-3-one 1,1-dioxide] | ≤ 1000 | ≤ 1000
CCn1nc(-c2ccc(O)c(N3CC(=O)NS3(=O)=O)c2F)cc1C1CC1 [Compound 331, 5-(3-(5-cyclopropyl-1-ethyl-1H-pyrazol-3-yl)-2-fluoro-6-hydroxyphenyl)-1,2,5-thiadiazolidin-3-one 1,1-dioxide] | ≤ 1000 | ≤ 1000
O=C1CN(c2c(O)ccc(-c3cc(N4CCCCC4)n[nH]3)c2F)S(=O)(=O)N1 [Compound 332, 5-(2-fluoro-6-hydroxy-3-(3-(piperidin-1-yl)-1H-pyrazol-5-yl)phenyl)-1,2,5-thiadiazolidin-3-one 1,1-dioxide] | ≤ 1000 | ≤ 1000
Cn1ccc(-c2cc(-c3ccc(O)c(N4CC(=O)NS4(=O)=O)c3F)[nH]n2)c1 [Compound 333, 5-(2-fluoro-6-hydroxy-3-(3-(1-methyl-1H-pyrrol-3-yl)-1H-pyrazol-5-yl)phenyl)-1,2,5-thiadiazolidin-3-one 1,1-dioxide] | ≤ 1000 | ≤ 1000
CC(C)CCc1ncc(-c2ccc(O)c(N3CC(=O)NS3(=O)=O)c2F)[nH]1 [Compound 334, 5-(2-fluoro-6-hydroxy-3-(2-isopentyl-1H-imidazol-5-yl)phenyl)-1,2,5-thiadiazolidin-3-one 1,1-dioxide] | ≤ 1000 | ≤ 1000

Further lines, results first:

IC50 (PTPN2 (i.e., TC-PTP)) [nM] | IC50 (PTPN1 (i.e., PTP1B)) [nM] | SMILES
≤ 1000 | ≤ 1000 | O=C1CN(c2c(O)ccc(-c3ccc(NS(=O)(=O)C4CCC4)cc3)c2F)S(=O)(=O)N1 [Compound 335, N-(3′-(1,1-dioxido-4-oxo-1,2,5-thiadiazolidin-2-yl)-2′-fluoro-4′-hydroxy-[1,1′-biphenyl]-4-yl)cyclobutanesulfonamide]
≤ 1000 | ≤ 1000 | O=C1CN(c2c(O)ccc(-c3cc(C(=O)N4CCOCC4)n[nH]3)c2F)S(=O)(=O)N1 [Compound 336, 5-(2-fluoro-6-hydroxy-3-(3-(morpholine-4-carbonyl)-1H-pyrazol-5-yl)phenyl)-1,2,5-thiadiazolidin-3-one 1,1-dioxide]
≤ 1000 | ≤ 1000 | O=C1CN(c2c(O)ccc(-c3cc(C(F)F)n[nH]3)c2F)S(=O)(=O)N1 [Compound 337, 5-(3-(3-(difluoromethyl)-1H-pyrazol-5-yl)-2-fluoro-6-hydroxyphenyl)-1,2,5-thiadiazolidin-3-one 1,1-dioxide]
≤ 1000 | ≤ 1000 | CC(C)CCS(=O)(=O)N1CC=C(c2ccc(O)c(N3CC(=O)NS3(=O)=O)c2F)C1 [Compound 338, 5-(2-fluoro-6-hydroxy-3-(1-(isopentylsulfonyl)-2,5-dihydro-1H-pyrrol-3-yl)phenyl)-1,2,5-thiadiazolidin-3-one 1,1-dioxide]
≤ 1000 | ≤ 1000 | O=C1CN(c2c(O)ccc(-c3cc(CCC4CCC4)n[nH]3)c2F)S(=O)(=O)N1 [Compound 339, 5-(3-(3-(2-cyclobutylethyl)-1H-pyrazol-5-yl)-2-fluoro-6-hydroxyphenyl)-1,2,5-thiadiazolidin-3-one 1,1-dioxide]
≤ 1000 | ≤ 1000 | Cc1cc(-c2ccc(O)c(N3CC(=O)NS3(=O)=O)c2F)nn1C1CC1 [Compound 340, 5-(3-(1-cyclopropyl-5-methyl-1H-pyrazol-3-yl)-2-fluoro-6-hydroxyphenyl)-1,2,5-thiadiazolidin-3-one 1,1-dioxide]
≤ 1000 | ≤ 1000 | O=C1CN(c2c(O)ccc(-c3cnn(C4CCC(C(F)(F)F)CC4)c3)c2F)S(=O)(=O)N1 (stereo not shown) [Compound 341, 5-(2-fluoro-6-hydroxy-3-(1-(4-(trifluoromethyl)cyclohexyl)-1H-pyrazol-4-yl)phenyl)-1,2,5-thiadiazolidin-3-one 1,1-dioxide]
≤ 1000 | ≤ 1000 | O=C1CN(c2c(O)ccc(-c3cnn(S(=O)(=O)C4CC4)c3)c2F)S(=O)(=O)N1 [Compound 342, 5-(3-(1-(cyclopropylsulfonyl)-1H-pyrazol-4-yl)-2-fluoro-6-hydroxyphenyl)-1,2,5-thiadiazolidin-3-one 1,1-dioxide]
≤ 1000 | ≤ 1000 | O=C1CN(c2c(O)ccc(-c3cc(N4CCCC4)n[nH]3)c2F)S(=O)(=O)N1 [Compound 343, 5-(2-fluoro-6-hydroxy-3-(3-(pyrrolidin-1-yl)-1H-pyrazol-5-yl)phenyl)-1,2,5-thiadiazolidin-3-one 1,1-dioxide]
≤ 1000 | ≤ 1000 | O=C1CN(c2c(O)ccc(-c3cc(N4CCCOCC4)n[nH]3)c2F)S(=O)(=O)N1 [Compound 344, 5-(3-(3-(1,4-oxazepan-4-yl)-1H-pyrazol-5-yl)-2-fluoro-6-hydroxyphenyl)-1,2,5-thiadiazolidin-3-one 1,1-dioxide]
≤ 1000 | ≤ 1000 | Cn1nc(-c2ccc(O)c(N3CC(=O)NS3(=O)=O)c2F)cc1C1(N)CC1 [Compound 345, 5-(3-(5-(1-aminocyclopropyl)-1-methyl-1H-pyrazol-3-yl)-2-fluoro-6-hydroxyphenyl)-1,2,5-thiadiazolidin-3-one 1,1-dioxide]
≤ 1000 | ≤ 1000 | COc1ccccc1-n1cnc(-c2ccc(O)c(N3CC(=O)NS3(=O)=O)c2F)c1 [Compound 346, 5-(2-fluoro-6-hydroxy-3-(1-(2-methoxyphenyl)-1H-imidazol-4-yl)phenyl)-1,2,5-thiadiazolidin-3-one 1,1-dioxide]
≤ 1000 | ≤ 1000 | O=C1CN(c2c(O)ccc(-c3ncc(C4CC4)[nH]3)c2F)S(=O)(=O)N1 [Compound 347, 5-(3-(5-cyclopropyl-1H-imidazol-2-yl)-2-fluoro-6-hydroxyphenyl)-1,2,5-thiadiazolidin-3-one 1,1-dioxide]
≤ 1000 | ≤ 1000 | COc1ccc(-n2cnc(-c3ccc(O)c(N4CC(=O)NS4(=O)=O)c3F)c2)cc1 [Compound 348, 5-(2-fluoro-6-hydroxy-3-(1-(4-methoxyphenyl)-1H-imidazol-4-yl)phenyl)-1,2,5-thiadiazolidin-3-one 1,1-dioxide]
